# Assay results reported in PMC6399351, “Cationic Intrinsically Disordered Antimicrobial Peptides (CIDAMPs) Represent a New Paradigm of Innate Defense with a Potential for Novel Anti-Infectives” (Scientific Reports, 2019).
# Read-outs that look alike come from different tables or passages of the source. Peptide text beside a SMILES is read from it. * marks the point of attachment. Palmitoyl = CCCCCCCCCCCCCCCC(=O)*
# What was measured:
# [1] = tested on: Streptococcus pneumoniae ATCC 33400; assay: CFU assay of antimicrobial activity; format: cell-based; conditions: 10 mM NaP
# Method: (§1) All purified peptides and recombinant proteins were applied using a colony forming unit (CFU) assay in different media. Bacteria were grown to early log-phase in BHI, washed either with 10 mM Na-P, pH 7.4/1% TSB or pH 5.5/1% TSB, or pH 5.5 without TSB or BHI, and adjusted to a concentration of 10^4–10^5 colony forming units (CFU)/ml. For cell number control, 100 µl aliquots were diluted 1:10, 1:100 and 1:1000 and plated in duplicates on BHI agar plates. To 100 µl aliquots of the bacteria, suspended in the respective medium (10 mM Na-P buffer pH 7,0–7,4/ 1% (w/v) TSB; […]; 10 mM Na-P buffer pH 7,0–7,4/ 1% (w/v) TSB pH 7,0–7,4/ 0,25% (w/v) glucose; 10 mM Na-P buffer pH 5,5/ 0,25% (w/v) glucose, respectively), 10 µl of a solution of the peptide or protein (two-fold dilutions, from 300 µg/ml or 150 µg/ml down to 19 ng/ml), dissolved in 0.01% (v/v) acetic acid, were added.
# (§2) Then bacteria were incubated for 2 h at ambient temperature, if not otherwise stated. 10 µl of 0.01% (v/v) acetic acid, added to 100 µl aliquots of the bacteria in the respective medium, served as negative control. From each test, 1:10 and 1:100 dilutions were generated and plated as duplicates of 100 µl aliquots on BHI agar plates. After 16 h incubation at 37 °C, CFU were counted using a colony counter (Bio Kobe, Japan) and expressed as mean of the duplicate estimation to achieve a complete dose-response curve. All experiments were performed at serial dilutions in a concentration range of 100 µg/mL −25 ng/mL for recombinant HRNR fragments and 300 or 150 µg/mL–19 ng/mL for synthetic peptides.
# [2] = tested on: Streptococcus pyogenes ATCC 12344; assay: CFU assay of antimicrobial activity; format: cell-based; conditions: 10 mM NaP
# Method: as §1, §2
# [3] = tested on: Prevotella oralis ATCC 33321; assay: CFU assay of antimicrobial activity; format: cell-based; conditions: 10 mM NaP
# Method: All purified peptides and recombinant proteins were applied using a colony forming unit (CFU) assay in different media. Bacteria were grown to early log-phase in BHI, washed either with 10 mM Na-P, pH 7.4/1% TSB or pH 5.5/1% TSB, or pH 5.5 without TSB or BHI, and adjusted to a concentration of 10^4–10^5 colony forming units (CFU)/ml. For cell number control, 100 µl aliquots were diluted 1:10, 1:100 and 1:1000 and plated in duplicates on BHI agar plates. To 100 µl aliquots of the bacteria, suspended in the respective medium (10 mM Na-P buffer pH 7,0–7,4/ 1% (w/v) TSB; 10 mM Na-P buffer pH 5,5/ 1% (w/v) TSB; 10 mM Na-P buffer pH 7,0–7,4/ 1% (w/v) TSB pH 7,0–7,4/ 0,25% (w/v) glucose; […], respectively), 10 µl of a solution of the peptide or protein (two-fold dilutions, from 300 µg/ml or 150 µg/ml down to 19 ng/ml), dissolved in 0.01% (v/v) acetic acid, were added.
# as §2
# [4] = tested on: Propionibacterium acnes ATCC 6919; assay: CFU assay of antimicrobial activity; format: cell-based; conditions: 10 mM NaP
# Method: (§3) All purified peptides and recombinant proteins were applied using a colony forming unit (CFU) assay in different media. Bacteria were grown to early log-phase in BHI, washed either with 10 mM Na-P, pH 7.4/1% TSB or pH 5.5/1% TSB, or pH 5.5 without TSB or BHI, and adjusted to a concentration of 10^4–10^5 colony forming units (CFU)/ml. For cell number control, 100 µl aliquots were diluted 1:10, 1:100 and 1:1000 and plated in duplicates on BHI agar plates. To 100 µl aliquots of the bacteria, suspended in the respective medium (10 mM Na-P buffer pH 7,0–7,4/ 1% (w/v) TSB; 10 mM Na-P buffer pH 5,5/ 1% (w/v) TSB; 10 mM Na-P buffer pH 7,0–7,4/ 1% (w/v) TSB pH 7,0–7,4/ 0,25% (w/v) glucose; 10 mM Na-P buffer pH 5,5/ 0,25% (w/v) glucose, respectively), 10 µl of a solution of the peptide or protein (two-fold dilutions, from 300 µg/ml or 150 µg/ml down to 19 ng/ml), dissolved in 0.01% (v/v) acetic acid, were added.
# as §2
# [5] = tested on: Acinetobacter baumannii ATCC 19606; assay: CO-ADD MIC, broth microdilution (CLSI); format: cell-based; conditions: Mueller–Hinton broth, 5 × 10^5 CFU/mL, 18 h 37 °C, by CO-ADD
# Source text: (§4) They were defined as the lowest peptide
# (§5) Further details of the screening
# [6] = tested on: Pseudomonas aeruginosa ATCC 27853; assay: CO-ADD MIC, broth microdilution (CLSI); format: cell-based; conditions: Mueller–Hinton broth, 5 × 10^5 CFU/mL, 18 h 37 °C, by CO-ADD
# Source text: as §4, §5
# [7] = tested on: Candida albicans ATCC 90028; assay: CO-ADD MIC, antifungal assay (CLSI); format: cell-based; conditions: Yeast Nitrogen Base broth, 24 h 35 °C, by CO-ADD
# Method: (§6) Fungi strains were cultured for 3 days on Yeast Extract-Peptone Dextrose (YPD) agar at 30 °C. A yeast suspension of 1 × 10^6 to 5 × 10^6 cells/mL (as determined by OD530) was prepared from five colonies. These stock suspensions were diluted with Yeast Nitrogen Base (YNB) broth to a final concentration of 2.5 × 10^3 CFU/mL. […] Plates were covered and incubated at 35 °C for 24 h without shaking.
# [8] = tested on: Cryptococcus neoformans ATCC 208821; assay: CO-ADD MIC, antifungal assay (CLSI); format: cell-based; conditions: Yeast Nitrogen Base broth, 24 h 35 °C, by CO-ADD
# Method: as §6
# E. coli ATCC 25922 = assay: CO-ADD MIC, broth microdilution (CLSI); format: cell-based, Escherichia coli; conditions: Mueller–Hinton broth, 5 × 10^5 CFU/mL, 18 h 37 °C, by CO-ADD
# Source text: as §4, §5
# P. aeruginosa ATCC 10145 = conditions: CFU assay, 10 mM NaP
# S. aureus ATCC 6538 = conditions: CFU assay, 10 mM NaP
# [9] = tested on: Burkholderia cepacia ATCC 25416; conditions: CFU assay, 10 mM NaP
# [10] = tested on: Clostridium perfringens ATCC 13124; conditions: CFU assay, 10 mM NaP
# [11] = tested on: Klebsiella pneumonia ATCC 700603; conditions: MDR strain; CLSI, Mueller–Hinton broth, 5 × 10^5 CFU/mL, 18 h 37 °C, by CO-ADD
# [12] = tested on: Staphylococcus aureus ATCC 43300; conditions: MRSA; CLSI, Mueller–Hinton broth, 5 × 10^5 CFU/mL, 18 h 37 °C, by CO-ADD
# [13] = tested on: Staphylococcus epidermidis ATCC 14990; assay: CFU assay of antimicrobial activity; format: cell-based; conditions: 10 mM NaP
# Method: as §3, §2
# [14] = tested on: Klebsiella pneumoniae ATCC 13883; conditions: CFU assay, 10 mM NaP
# E. coli ATCC 11775 = assay: CFU assay of antimicrobial activity; format: cell-based, Escherichia coli; conditions: 10 mM NaP
# Method: as §3, §2
# [15] = tested on: Salmonella typhimurium ATCC 13311; assay: CFU assay of antimicrobial activity; format: cell-based; conditions: 10 mM NaP
# Method: as §3, §2
Compound,"LD90 ([1]; pH 7.3, 0.25% glucose) [µg/mL]","LD90 ([2]; pH 7.3, 0.25% glucose) [µg/mL]","LD90 ([3]; pH 7.3, 1% TSB) [µg/mL]","LD90 ([4]; pH 7.3, 1% TSB) [µg/mL]",Minimal inhibitory concentration (MIC) [5] [µg/mL],Minimal inhibitory concentration (MIC) [6] [µg/mL],Minimal inhibitory concentration (MIC) [7] [µg/mL],Minimal inhibitory concentration (MIC) [8] [µg/mL],Minimal inhibitory concentration (MIC) (E. coli ATCC 25922) [µg/mL],"LD90 (S. aureus ATCC 6538; pH 5.5, 0.25% glucose) [µg/mL]","LD90 (S. aureus ATCC 6538; pH 7.3, 1% TSB) [µg/mL]","LD90 ([9]; pH 7.3, 0.25% glucose) [µg/mL]","LD90 ([10]; pH 7.3, 0.25% glucose) [µg/mL]",Minimal inhibitory concentration (MIC) [11] [µg/mL],Minimal inhibitory concentration (MIC) [12] [µg/mL],"LD90 ([14]; pH 5.5, 0.25% glucose) [µg/mL]",also measured
CCCCCCCCCCCCCCCC(=O)NCC(=O)N[C@@H](CCCNC(=N)N)C(=O)N[C@@H](CCCNC(=N)N)C(=O)NCC(=O)N[C@@H](CO)C(=O)NCC(=O)N[C@@H](CC(C)C)C(=O)NCC(=O)N[C@@H](CCCNC(=N)N)C(=O)N[C@@H](CO)C(=O)N[C@@H](CO)C(=O)N[C@@H](CO)C(=O)N[C@@H](CCCNC(=N)N)C(=O)NCC(=O)N[C@@H](CCC(N)=O)C(=O)N[C@@H](CCCNC(=N)N)C(=O)NCC(=O)N[C@@H](CO)C(=O)NCC(=O)N[C@@H](CO)C(=O)NCC(=O)N[C@@H](CCCNC(=N)N)C(=O)O [Pal-HR 1-18-HR] (Palmitoyl-GRRGSGLGRSSSRGQRGSGSGR-OH),9.38,0.15,37.5,1.18,1,16,>32,1,4,0.3,1.18,75,4.7,>32,8,–,"LD90 (P. aeruginosa ATCC 10145; pH 7.3, 1% TSB): 1.18 µg/mL; LD90 ([9]; pH 7.3, 1% TSB): 75 µg/mL"
CCCCCCCCCCCCCCCC(=O)NCC(=O)N[C@@H](CCCNC(=N)N)C(=O)N[C@@H](Cc1c[nH]cn1)C(=O)NCC(=O)N[C@@H](CO)C(=O)NCC(=O)N[C@@H](CC(C)C)C(=O)NCC(=O)N[C@@H](Cc1c[nH]cn1)C(=O)N[C@@H](CO)C(=O)N[C@@H](CO)C(=O)N[C@@H](CO)C(=O)N[C@@H](Cc1c[nH]cn1)C(=O)NCC(=O)N[C@@H](CCC(N)=O)C(=O)N[C@@H](Cc1c[nH]cn1)C(=O)NCC(=O)N[C@@H](CO)C(=O)NCC(=O)N[C@@H](CO)C(=O)NCC(=O)N[C@@H](CCCNC(=N)N)C(=O)O [Pal-HR 1-18] (Palmitoyl-GRHGSGLGHSSSHGQHGSGSGR-OH),2.35,0.15,18.75,1.18,32,>32,>32,>32,>32,1.18,> 300,75,4.7,>32,>32,0.3,"LD90 ([1]; pH 7.3, 1% TSB): 9.38 µg/mL; LD90 ([2]; pH 7.3, 1% TSB): 9.38 µg/mL; LD90 ([3]; pH 6.5, 0.25% glucose): 37.5 µg/mL; LD90 ([4]; pH 5.5, 0.25% glucose): 0.3 µg/mL; LD90 ([4]; pH 7.3, 0.25% glucose): 0.59 µg/mL; LD90 ([13]; pH 7.3, 1% TSB): > 300 µg/mL; LD90 ([10]; pH 5.5, 0.25% glucose): 37.5 µg/mL; LD90 ([10]; pH 7.3, 1% TSB): 18.75 µg/mL"
CCCCCCCCCCCCCCCC(=O)N[C@@H](CO)C(=O)N[C@@H](Cc1c[nH]cn1)C(=O)N[C@@H](Cc1c[nH]cn1)C(=O)N[C@@H](CCCNC(=N)N)C(=O)N[C@@H](CS)C(=O)N[C@@H](CS)C(=O)N[C@@H](CCCNC(=N)N)C(=O)N[C@@H](CO)C(=O)N[C@@H](Cc1c[nH]cn1)C(=O)N[C@@H](CCCNC(=N)N)C(=O)N[C@@H](CS)C(=O)N[C@@H](CCCNC(=N)N)C(=O)N[C@@H](CCCNC(=N)N)C(=O)O [Pal-LCE-3B56–68] (Palmitoyl-SHHRCCRSHRCRR-OH),0.59,0.15,–,–,>32,>32,1,0.25,>32,<0.019,–,4.7,–,>32,16,0.15,"LD90 (E. coli ATCC 11775; pH 5.5, 0.25% glucose): 0.3 µg/mL; LD90 (E. coli ATCC 11775; pH 7.3, 0.25% glucose): 0.59 µg/mL; LD90 ([2]; pH 6.0, 0.25% glucose): 0.15 µg/mL; LD90 ([15]; pH 5.5, 0.25% glucose): 0.038 µg/mL; LD90 ([15]; pH 7.3, 0.25% glucose): 1.18 µg/mL; LD90 ([13]; pH 5.5, 0.25% glucose): 0.3 µg/mL; LD90 (P. aeruginosa ATCC 10145; pH 5.5, 0.25% glucose): 0.075 µg/mL; LD90 ([9]; pH 5.5, 0.25% glucose): >300 µg/mL; LD90 ([14]; pH 7.3, 0.25% glucose): 2.35 µg/mL"
